According to US20100004250A1, “PTERIDINE DERIVATIVES AS POLO-LIKE KINASE INHIBITORS USEFUL IN THE TREATMENT OF CANCER” (CHROMA THERAPEUTICS LTD., priority 2006, published 2010):

Legend:
PLK1 = biological target: T1, PLK1 (Homo sapiens, UniProt P53350); assay: PLK1 enzyme assay (Z'-LYTE, Invitrogen); type: biochemical; settings: ATP at or close to Km, 60 minute kinase reaction; read-out: Inhibitor Activity vs PLK1
T1 construct: purchased Invitrogen (Paisley, UK), assay service
Procedure: The ability of compounds to inhibit PLK-1 kinase activity was measured in an assay performed by Invitrogen (Paisley, UK). The Z′-LYTE™ biochemical assay employs a fluorescence-based, coupled-enzyme format and is based on the differential sensitivity of phosphorylated and non-phosphorylated peptides to proteolytic cleavage. The peptide substrate is labelled with two fluorophores—one at each end—that make up a FRET pair. In the primary reaction, the kinase transfers the gamma-phosphate of ATP to a single serine or threonine residue in a synthetic FRET-peptide. In the secondary reaction, a site-specific protease recognizes and cleaves non-phosphorylated FRET-peptides. Phosphorylation of FRET-peptides suppresses cleavage by the Development Reagent. Cleavage disrupts FRET between the donor (i.e., coumarin) and acceptor (i.e., fluorescein) fluorophores on the FRET-peptide, whereas uncleaved, phosphorylated FRET-peptides maintain FRET. A […] method, which calculates the ratio (the Emission Ratio) of donor emission to acceptor emission after excitation of the donor fluorophore at 400 nm, is used to quantitate reaction progress.
The final 10 μl Kinase Reaction consists of 2.8-25.3 ng PLK1, 2 μM Ser/Thr 16 Peptide substrate and ATP in 50 mM HEPES pH 7.5, 0.01% BRIJ-35, 10 mM MgCl2, 1 mM EGTA. The assay is performed at an ATP concentration at, or close to, the Km. After the 60 minute Kinase Reaction incubation at room temperature, 5 μl of a 1:8 dilution of Development Reagent is added. The assay plate is incubated for a further 60 minutes at room temperature and read on a fluorescence plate reader.
Duplicate data points are generated from a ⅓ log dilution series of a stock solution of test compound in DMSO. Nine dilutions steps are made from a top concentration of 10 μM, and a “no compound” blank is included. Data is collected and analysed using XLfit software from IDBS. The dose response curve is curve fitted to model number 205 (sigmoidal dose-response model). From the curve generated, the concentration giving 50% inhibition is determined and reported.

HCT 116 cell line = assay: Cell inhibition assay (WST-1 proliferation); type: cell-based; settings: Homo sapiens, 120 hrs incubation, read-out: Inhibitor Activity vs HCT 116 cell line
Procedure: Cells were seeded in 96W tissue culture plates (1 well=30 mm^2) at a density of 500 cells per well in 50 μl of the appropriate culture medium (see below). 24 hrs later 50 μl of the compound prepared in the same medium was added as 4 fold dilutions to give final concentrations in the range 0.15 nM-2500 nM (n=6 for each concentration). The plates were then incubated at 37° C., 5% CO2 for 120 hrs. Cell proliferation was assessed using WST-1 (a metabolic indicator dye, Roche Cat no. 1 644 807) according to the manufacturers instructions. The results were calculated as percentage of vehicle response and IC50 values represent the concentration of compound that inhibited the vehicle response by 50%.
HCT-116 Culture Medium—Dulbeccos MEM (Sigma D6546) plus 10% heat inactivated fetal calf serum (Hyclone SH30071 Thermo Fischer Scientific) containing 2 mM Glutamine (Sigma cat no G-7513) and 50 U/ml Penicillin and Streptomycin Sulphate (Sigma Cat no P-0781).

T1 sequence (P53350 whole entry): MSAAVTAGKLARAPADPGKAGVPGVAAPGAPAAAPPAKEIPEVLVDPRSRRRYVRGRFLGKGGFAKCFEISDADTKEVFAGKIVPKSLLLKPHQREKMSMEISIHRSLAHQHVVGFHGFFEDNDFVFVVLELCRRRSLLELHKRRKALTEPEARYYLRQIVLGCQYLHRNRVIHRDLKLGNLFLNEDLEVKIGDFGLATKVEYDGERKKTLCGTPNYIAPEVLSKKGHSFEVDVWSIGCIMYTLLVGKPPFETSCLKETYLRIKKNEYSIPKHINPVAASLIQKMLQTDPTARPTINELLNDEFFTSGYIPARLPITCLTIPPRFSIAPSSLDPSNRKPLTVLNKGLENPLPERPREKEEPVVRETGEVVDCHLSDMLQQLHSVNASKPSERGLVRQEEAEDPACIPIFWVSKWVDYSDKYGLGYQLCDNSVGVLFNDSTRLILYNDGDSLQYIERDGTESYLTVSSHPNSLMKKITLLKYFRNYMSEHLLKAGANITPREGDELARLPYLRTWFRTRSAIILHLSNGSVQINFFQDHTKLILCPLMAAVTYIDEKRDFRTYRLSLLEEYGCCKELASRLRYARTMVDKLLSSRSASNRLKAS

IC50 (PLK1) [nM] | IC50 (HCT 116 cell line) [nM] | Structure (SMILES)
100 to 500 | < 100 | CC[C@@H]1C(=O)N(C)c2cnc(Nc3ccc(C(=O)Nc4ccc(CCCC(=O)N[C@@H](CC(C)C)C(=O)OC5CCCC5)cc4)cc3OC)nc2N1C1CCCC1 [Example 12, Cyclopentyl N-(4-{4-[(4-{[(7R)-8-cyclopentyl-7-ethyl-5-methyl-6-oxo-5,6,7,8-tetrahydropteridin-2-yl]amino}-3-methoxybenzoyl)amino]phenyl}butanoyl)-L-leucinate]
< 100 | – | CC[C@@H]1C(=O)N(C)c2cnc(Nc3ccc(C(=O)NC4CCN(CCCC(=O)N[C@H](CC(C)C)C(=O)O)CC4)cc3OC)nc2N1C1CCCC1 [Example 19, N-(4-{4-[(4-{[(7R)-8-Cyclopentyl-7-ethyl-5-methyl-6-oxo-5,6,7,8-tetrahydropteridin-2-yl]amino}-3-methoxybenzoyl)amino]Piperidin-1-yl}butanoyl)-D-leucine]
< 100 | < 100 | CC[C@@H]1C(=O)N(C)c2cnc(Nc3ccc(C(=O)NC4CCN(CCCC(=O)N[C@@H](CC(C)C)C(=O)OC5CCCC5)CC4)cc3OC)nc2N1C1CCCC1 [Example 1, Cyclopentyl N-(4-{4-[(4-{[(7R)-8-cyclopentyl-7-ethyl-5-methyl-6-oxo-5,6,7,8-tetrahydropteridin-2-yl]amino}-3-methoxybenzoyl)amino]piperidin-1-yl}butanoyl)-L-leucinate]
< 100 | < 100 | CC[C@@H]1C(=O)N(C)c2cnc(Nc3ccc(C(=O)NC4CCN(CCNC(=O)N[C@H](C(=O)OC5CCCC5)c5ccccc5)CC4)cc3OC)nc2N1C1CCCC1 [Example 9, Cyclopentyl (2S)-{[(2-{4-[(4-{[(7R)-8-cyclopentyl-7-ethyl-5-methyl-6-oxo-5,6,7,8-tetrahydropteridin-2-yl]amino}-3-methoxybenzoyl)amino]piperidin-1-yl}ethyl)carbamoyl]amino}(phenyl)acetate]
< 100 | < 100 | CC[C@@H]1C(=O)N(C)c2cnc(Nc3ccc(C(=O)NC4CCN(CCCCC(=O)N[C@@H](CC(C)C)C(=O)OC5CCCC5)CC4)cc3OC)nc2N1C1CCCC1 [Example 6, Cyclopentyl N-(5-{4-[(4-{[(7R)-8-cyclopentyl-7-ethyl-5-methyl-6-oxo-5,6,7,8-tetrahydropteridin-2-yl]amino}-3-methoxybenzoyl)amino]piperidin-1-yl}pentanoyl)-L-leucinate]
< 100 | – | CC[C@@H]1C(=O)N(C)c2cnc(Nc3ccc(C(=O)NC4CCN(CC(=O)N[C@@H](CC(C)C)C(=O)O)CC4)cc3OC)nc2N1C1CCCC1 [Example 24, N-({4-[(4-{[(7R)-8-Cyclopentyl-7-ethyl-5-methyl-6-oxo-5,6,7,8-tetrahydropteridin-2-yl]amino}-3-methoxybenzoyl)amino]piperidin-1-yl}acetyl)-L-leucine]
< 100 | – | CC[C@@H]1C(=O)N(C)c2cnc(Nc3ccc(C(=O)NC4CCN(CCCC(=O)N[C@H](C(=O)O)c5ccccc5)CC4)cc3OC)nc2N1C1CCCC1 [Example 20, (2S)-[(4-{4-[(4-{[(7R)-8-Cyclopentyl-7-ethyl-5-methyl-6-oxo-5,6,7,8-tetrahydropteridin-2-yl]amino}-3-methoxybenzoyl)amino]piperidin-1-yl}butanoyl)amino](phenyl)acetic acid]
< 100 | – | CC[C@@H]1C(=O)N(C)c2cnc(Nc3c(F)cc(/C=C/CCCC(=O)N[C@@H](CC(C)C)C(=O)O)cc3F)nc2N1C1CCCC1 [Example 30, N-[(5E)-6-(4-{[(7R)-8-Cyclopentyl-7-ethyl-5-methyl-6-oxo-5,6,7,8-tetrahydropteridin-2-yl]amino}-3,5-difluorophenyl)hex-5-enoyl]-L-leucine]
< 100 | – | CC[C@@H]1C(=O)N(C)c2cnc(Nc3ccc(C(=O)N[C@H]4CC[C@@H](CCC(=O)N[C@@H](CC(C)C)C(=O)O)CC4)cc3OC)nc2N1C1CCCC1 [Example 31, N-(3-{cis-4-[(4-{[(7R)-8-Cyclopentyl-7-ethyl-5-methyl-6-oxo-5,6,7,8-tetrahydropteridin-2-yl]amino}-3-methoxybenzoyl)amino]cyclohexyl}propanoyl)-L-leucine]
< 100 | – | CC[C@@H]1C(=O)N(C)c2cnc(Nc3ccc(C(=O)NC4CCN(CCCC(=O)N[C@@H](CC(C)C)C(=O)O)CC4)cc3OC)nc2N1C1CCCC1 [Example 18, N-(4-{4-[(4-{[(7R)-8-Cyclopentyl-7-ethyl-5-methyl-6-oxo-5,6,7,8-tetrahydropteridin-2-yl]amino}-3-methoxybenzoyl)amino]piperidin-1-yl}butanoyl)-L-leucine]
< 100 | – | CC[C@@H]1C(=O)N(C)c2cnc(Nc3ccc(C(=O)NCCCC(=O)N[C@@H](CC(C)C)C(=O)O)cc3OC)nc2N1C1CCCC1 [Example 27, N-{4-[(4-{[(7R)-8-Cyclopentyl-7-ethyl-5-methyl-6-oxo-5,6,7,8-tetrahydropteridin-2-yl]amino}-3-methoxybenzoyl)amino]butanoyl}-L-leucine]
< 100 | – | CC[C@@H]1C(=O)N(C)c2cnc(Nc3ccc(C(=O)NC4CCN(CCCCC(=O)N[C@@H](CC(C)C)C(=O)O)CC4)cc3OC)nc2N1C1CCCC1 [Example 23, N-(5-[4-[(4-{[(7R)-8-Cyclopentyl-7-ethyl-5-methyl-6-oxo-5,6,7,8-tetrahydropteridin-2-yl]amino}-3-methoxybenzoyl)amino]piperidin-1-yl]pentanoyl)-L-leucine]
< 100 | – | CC[C@@H]1C(=O)N(C)c2cnc(Nc3ccc(C(=O)Nc4ccc(CCCC(=O)N[C@@H](CC(C)C)C(=O)O)cc4)cc3OC)nc2N1C1CCCC1 [Example 26, N-(4-{4-[(4-{[(7R)-8-Cyclopentyl-7-ethyl-5-methyl-6-oxo-5,6,7,8-tetrahydropteridin-2-yl]amino}-3-methoxybenzoyl)amino]phenyl}butanoyl)-L-leucine]
< 100 | – | CC[C@@H]1C(=O)N(C)c2cnc(Nc3ccc(/C=C/CCCC(=O)N[C@@H](CC(C)C)C(=O)O)cc3F)nc2N1C1CCCC1 [Example 28, N-[(5E)-6-(4-{[(7R)-8-Cyclopentyl-7-ethyl-5-methyl-6-oxo-5,6,7,8-tetrahydropteridin-2-yl]amino}-3-fluorophenyl)hex-5-enoyl]-L-leucine]
< 100 | – | CC[C@@H]1C(=O)N(C)c2cnc(Nc3ccc(C(=O)NC4CCN(CCCC(=O)N[C@@H](C(=O)O)c5ccccc5)CC4)cc3OC)nc2N1C1CCCC1 [Example 21, (2R)-[(4-{4-[(4-{[(7R)-8-Cyclopentyl-7-ethyl-5-methyl-6-oxo-5,6,7,8-tetrahydropteridin-2-yl]amino}-3-methoxybenzoyl)amino]piperidin-1-yl}butanoyl)amino](phenyl)acetic acid]
< 100 | – | CC[C@@H]1C(=O)N(C)c2cnc(Nc3ccc(C(=O)NC4CCN(CCNC(=O)N[C@H](C(=O)O)C5CCCCC5)CC4)cc3OC)nc2N1C1CCCC1 [Example 25, (2S)-Cyclohexyl{[(2-{4-[(4-{[(7R)-8-cyclopentyl-7-ethyl-5-methyl-6-oxo-5,6,7,8-tetrahydropteridin-2-yl]amino}-3-methoxybenzoyl)amino]piperidin-1-yl}ethyl)carbamoyl]amino}acetic acid]
< 100 | – | CC[C@@H]1C(=O)N(C)c2cnc(Nc3ccc(CCCCCC(=O)N[C@@H](CC(C)C)C(=O)O)cc3F)nc2N1C1CCCC1 [Example 29, N-[6-(4-{[(7R)-8-Cyclopentyl-7-ethyl-5-methyl-6-oxo-5,6,7,8-tetrahydropteridin-2-yl]amino}-3-fluorophenyl)hexanoyl]-L-leucine]
< 100 | – | CC[C@@H]1C(=O)N(C)c2cnc(Nc3ccc(C(=O)NC4CCN(CCCC(=O)N[C@@H](C(=O)O)C5CCCCC5)CC4)cc3OC)nc2N1C1CCCC1 [Example 22, (2R)-Cyclohexyl[(4-{4-[(4-{[(7R)-8-cyclopentyl-7-ethyl-5-methyl-6-oxo-5,6,78-tetrahydropteridin-2-yl]amino}-3-methoxybenzoyl)amino]piperidin-1-yl}butanoyl)amino]acetic acid]
